Measurements as given in ChEMBL document CHEMBL5726800, “Indazole and azaindazole Btk inhibitors” (2019).

Experiments:
[1] = biological target: T1, Tyrosine-protein kinase BTK (Homo sapiens, UniProt Q06187); experiment: 25P Btk Enzyme Activity Assay: Btk enzymatic activity was determined with the LANCE (Lanthanide Chelate Excite) TR-FRET (lime-resolved fluorescence resonance energy transfer) assay. […] To each well of a black non-binding surface Corning 384-well microplate (Corning Catalog #3820), 5 nL of compound (2000 fold dilution in final assay volume of 10 μL) was dispensed, followed by the addition of 7.5 μL of 1× kinase buffer (50 mM Hepes 7.5, 10 mM MgCl2, 0.01% Brij-35, 1 mM EGTA, 0.05% BSA and 1 mM DTT) containing 26.67 pg/μL (266.7 pM) of 25P Btk enzyme (recombinant protein from baculovirus-transfected Sf9 cells: full-length Btk; MW=79378 Da). Following a 60 minute compound and enzyme incubation, each reaction was initiated by the addition of 2.5 μL 1× kinase buffer containing 8 μM biotinylated “A5” peptide (Biotin-EQEDEPEGDYFEWLE-NH2), and 100 μM ATP. The final reaction in each well of 10 consists of 200 pM 25P Btk, 2 μM biotin-A5-peptide, and 25 μM ATP. Phosphorylation reactions were allowed to proceed for 120 minutes. Reactions were immediately quenched by the addition of 20 uL of 1× quench buffer (15 mM EDTA, 25 mM Hepes 7.3, and 0.1% Triton X-100) containing detection reagents (0.626 nM of LANCE-Eu-W1024-anti-phosphoTyrosine antibody, PerkinElmer and 86.8 nM of Streptavidin-conjugated Dylight 650, Dyomics/ThermoFisher Scientific). […]
T1 sequence (Q06187 whole entry): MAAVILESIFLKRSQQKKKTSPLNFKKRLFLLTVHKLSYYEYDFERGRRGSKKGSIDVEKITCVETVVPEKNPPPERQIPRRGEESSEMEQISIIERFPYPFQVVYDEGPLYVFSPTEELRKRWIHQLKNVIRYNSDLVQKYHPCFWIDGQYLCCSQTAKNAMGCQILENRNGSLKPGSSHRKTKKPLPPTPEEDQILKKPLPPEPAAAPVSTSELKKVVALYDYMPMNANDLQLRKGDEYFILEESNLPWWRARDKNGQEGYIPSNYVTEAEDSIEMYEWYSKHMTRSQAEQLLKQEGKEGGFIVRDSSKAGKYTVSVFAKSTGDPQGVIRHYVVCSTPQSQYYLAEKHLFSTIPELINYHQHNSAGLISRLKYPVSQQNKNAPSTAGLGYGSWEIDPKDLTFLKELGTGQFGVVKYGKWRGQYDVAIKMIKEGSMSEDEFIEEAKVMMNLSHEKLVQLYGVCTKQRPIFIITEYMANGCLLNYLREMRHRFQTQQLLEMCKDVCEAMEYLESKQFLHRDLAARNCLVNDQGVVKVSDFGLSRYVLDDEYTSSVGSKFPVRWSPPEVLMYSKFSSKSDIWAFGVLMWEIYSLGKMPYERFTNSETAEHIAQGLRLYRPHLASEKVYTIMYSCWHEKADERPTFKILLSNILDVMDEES

[2] = biological target: T1, Tyrosine-protein kinase BTK; experiment: 100P Btk Enzyme Activity Assay: Btk enzymatic activity was determined with the LANCE (Lanthanide Chelate Excite) TR-FRET (lime-resolved fluorescence resonance energy transfer) assay. […] To each well of a black non-binding surface Corning 384-well microplate (Corning Catalog #3820), 5 nL of compound (2000 fold dilution in final assay volume of 10 μL) was dispensed, followed by the addition of 7.5 μL of 1× kinase buffer (50 mM Hepes 7.5, 10 mM MgCl2, 0.01% Brij-35, 1 mM EGTA, 0.05% BSA & 1 mM DTT) containing 13.3 pg/μL (133.3 pM) of 100P Btk enzyme (recombinant protein from baculovirus-transfected Sf9 cells: full-length Btk; MW=79378 Da). Following a 60 minute compound and enzyme incubation, each reaction was initiated by the addition of 2.5 μL 1× kinase buffer containing 8 μM biotinylated “A5” peptide (Biotin-EQEDEPEGDYFEWLE-NH2) (SEQ.ID.NO.: 1) and 100 μM ATP. The final reaction in each well of 10 consists of 100 pM 100P Btk, 2 μM biotin-A5-peptide, and 25 μM ATP. Phosphorylation reactions were allowed to proceed for 45 minutes. Reactions were immediately quenched by the addition of 20 uL of 1× quench buffer (15 mM EDTA, 25 mM Hepes 7.3, and 0.1% Triton X-100) containing detection reagents (0.626 nM of LANCE-Eu-W1024-anti-phosphoTyrosine antibody, PerkinElmer and 86.8 nM of Streptavidin-conjugated Dylight 650, Dyomics/ThermoFisher Scientific). […]

## Cc1c(NC(=O)c2ccc(C(C)(C)C)cc2F)cccc1-c1cc(-c2cnn(C)c2)c2[nH]nc(N)c2c1
[1]
  IC50: 23.8 nM
[2]
  IC50: ≥ 1000 nM
